pKd: −log10 of the molar value. Peptide text beside a SMILES is read from it.
Test system: not listed separately
Assay: DMPC solubility assay, 0.5 mM DMPC (turbidity reduction)
Assay type: biochemical
Conditions: FIGS. 2A-2D and 3A-3C
Experimental: In this example, peptide stocks were diluted to 200 μM in H2O (a 2× solution) and 50 μL of peptide solution was transferred in triplicate into 96-well plates. A one mM solution of 1,2-dimyristoyl-sn-glycero-3-phosphocholine (DMPC) in H2O was prepared, and using a multichannel pipet, 50 μL DMPC solution was rapidly added to the plate. Peptide and lipid solutions were incubated at room temperature for 15 minutes with a final concentration of 100 μM peptides and 0.5 mM DMPC. After 15 minutes, absorbance was read on a plate reader at 405 nm. […] Data are presented as mean+SD over two runs.
In these experiments, DMPC solubility titration curves were generated. Peptide stocks were diluted to 200 μM in H2O (a 2× solution) and serially diluted in H2O over 4 concentrations, then 50 μL of peptide solutions were distributed in triplicate into 96-well plates. A 1 mM solution of 1,2-dimyristoyl-sn-glycero-3-phosphocholine (DMPC) in H2O was prepared, and using a multichannel pipet, 50 μL DMPC solution was rapidly added to the plate. Peptide and lipid solutions were incubated at room temperature for 15 minutes with final concentrations of 3.16-100 μM peptides and 0.5 mM DMPC. After 15 minutes, absorbance was read on a plate reader at 405 nm. […] Data are presented as mean+SD over two runs. Non-linear regression was used to calculate EC50 values.

Row | Compound | DMPC solubilizing activity
1 | T-019: therapeutic peptide (NMDEINKRLHAYEEGVKKAADE) | significant activity
2 | T-020: therapeutic peptide (DGDKLCDRLAEYCARAKEAFDR) | did not have significant solubilizing activity
3 | T-024: therapeutic peptide (FEHWISGIYSECKHLIQE) | significant activity
4 | T-026: therapeutic peptide (GFGDWIDSIEAFSRSLHS) | significant activity
5 | T-099: therapeutic peptide (RRMKDYLKKFQETLKREFRDWE) | did not have significant solubilizing activity

Target: LDLR (Homo sapiens, UniProt P01130)
Sequence (P01130 22-860): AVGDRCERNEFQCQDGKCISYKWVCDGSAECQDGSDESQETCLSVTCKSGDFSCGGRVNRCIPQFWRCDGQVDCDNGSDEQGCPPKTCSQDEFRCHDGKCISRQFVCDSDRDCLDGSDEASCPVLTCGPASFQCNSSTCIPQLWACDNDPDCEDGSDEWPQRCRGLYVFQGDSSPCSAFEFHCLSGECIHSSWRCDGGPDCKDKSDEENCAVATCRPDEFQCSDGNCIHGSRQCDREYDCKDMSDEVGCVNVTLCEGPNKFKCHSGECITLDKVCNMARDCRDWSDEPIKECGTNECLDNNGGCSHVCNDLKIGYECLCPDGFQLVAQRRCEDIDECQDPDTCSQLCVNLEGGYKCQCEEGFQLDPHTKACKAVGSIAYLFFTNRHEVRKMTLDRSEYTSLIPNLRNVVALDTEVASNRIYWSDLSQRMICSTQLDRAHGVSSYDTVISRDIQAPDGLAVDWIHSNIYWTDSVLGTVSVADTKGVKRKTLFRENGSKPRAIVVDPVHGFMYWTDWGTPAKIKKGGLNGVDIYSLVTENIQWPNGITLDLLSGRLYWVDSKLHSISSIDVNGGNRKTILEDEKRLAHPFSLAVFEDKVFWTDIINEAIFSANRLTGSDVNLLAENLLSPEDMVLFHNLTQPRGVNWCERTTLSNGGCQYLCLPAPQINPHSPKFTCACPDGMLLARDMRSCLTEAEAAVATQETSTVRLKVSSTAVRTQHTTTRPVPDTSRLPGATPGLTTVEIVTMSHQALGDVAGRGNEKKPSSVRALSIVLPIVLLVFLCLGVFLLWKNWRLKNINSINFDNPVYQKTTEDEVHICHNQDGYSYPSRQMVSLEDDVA
Assay: LDLR binding (SPR), high surfactant preparation
Conditions: not given
Experimental: The table shown in FIG. 23 illustrates LDLR binding data (SPR), using a high surfactant preparation. Recombinant LDLR was diluted in 10 mM acetate buffer pH 4.5 and amine coupled to a CM5 chip at 1000 RU. Peptides were diluted to 5 μM in running buffer (HBS-P+, 1 mM CaCl2) and serially diluted 1:3 for 5 total concentrations. Peptides were exposed to immobilized LDLR at a rate of […] for 120 seconds. Between cycles, the chip surface was regenerated with 3 injections of 50 mM NaOH/100 mM EDTA. Multi-Cycle Kinetics was performed on a Biacore Insight Evaluation Software and binding kinetics were analyzed with a 1:1 binding model.

Row | Compound | pKd
6 | CC(C)C[C@H](NC(=O)[C@H](CCCNC(=N)N)NC(=O)[C@H](CC(=O)O)NC(=O)[C@H](CCC(N)=O)NC(=O)[C@H](CC(C)C)NC(=O)[C@H](CCCCN)NC(=O)[C@H](CC(=O)O)NC(=O)CNC(=O)[C@H](CC(=O)O)NC(=O)[C@H](CCCNC(=N)N)NC(=O)[C@H](CC(C)C)NC(=O)[C@H](CC(C)C)NC(=O)[C@H](CCCNC(=N)N)NC(=O)[C@H](CCCNC(=N)N)NC(=O)[C@H](CCCNC(=N)N)NC(=O)[C@H](CC(C)C)NC(=O)[C@H](CCCNC(=N)N)NC(=O)[C@H](CCCNC(=N)N)NC(=O)[C@H](CC(C)C)NC(=O)[C@@H](N)Cc1c[nH]cn1)C(=O)N[C@@H](C)C(=O)N[C@@H](CCC(=O)O)C(=O)N[C@@H](Cc1ccc(O)cc1)C(=O)N[C@@H](CCC(N)=O)C(=O)N[C@@H](C)C(=O)N[C@@H](CCCNC(=N)N)C(=O)N[C@@H](C)C(=O)N[C@@H](CCCCN)C(=O)N[C@@H](CCC(=O)O)C(=O)N[C@@H](C)C(=O)N[C@@H](Cc1ccccc1)C(=O)N[C@@H](CC(=O)O)C(=O)N[C@@H](CCCNC(=N)N)C(=O)O [T-041] (H-HLRRLRRRLLRDGDKLQDRLAEYQARAKEAFDR-OH) | > 5.00

Same assay, conditions: high surfactant preparation (HBS-P+), 1:1 binding model; read-out: binding KD to LDLR

Row | Compound | pKd
7 | CC(C)C[C@H](NC(=O)[C@H](CCCNC(=N)N)NC(=O)[C@H](CC(=O)O)NC(=O)[C@H](CCC(N)=O)NC(=O)[C@H](CC(C)C)NC(=O)[C@H](CCCCN)NC(=O)[C@H](CC(=O)O)NC(=O)CNC(=O)[C@H](CC(=O)O)NC(=O)[C@H](CCCNC(=N)N)NC(=O)[C@H](CC(C)C)NC(=O)[C@H](CC(C)C)NC(=O)[C@H](CCCNC(=N)N)NC(=O)[C@H](CCCCN)NC(=O)[C@H](CCCNC(=N)N)NC(=O)[C@H](CC(C)C)NC(=O)[C@H](CCCCN)NC(=O)[C@H](CCCNC(=N)N)NC(=O)[C@H](CC(C)C)NC(=O)[C@@H](N)Cc1c[nH]cn1)C(=O)N[C@@H](C)C(=O)N[C@@H](CCC(=O)O)C(=O)N[C@@H](Cc1ccc(O)cc1)C(=O)N[C@@H](CCC(N)=O)C(=O)N[C@@H](C)C(=O)N[C@@H](CCCNC(=N)N)C(=O)N[C@@H](C)C(=O)N[C@@H](CCCCN)C(=O)N[C@@H](CCC(=O)O)C(=O)N[C@@H](C)C(=O)N[C@@H](Cc1ccccc1)C(=O)N[C@@H](CC(=O)O)C(=O)N[C@@H](CCCNC(=N)N)C(=O)O [T-040] (H-HLRKLRKRLLRDGDKLQDRLAEYQARAKEAFDR-OH) | > 5.00
8 | CC(C)C[C@H](NC(=O)[C@H](CCCNC(=N)N)NC(=O)[C@H](CCCCN)NC(=O)[C@H](CCC(N)=O)NC(=O)[C@H](CC(C)C)NC(=O)[C@H](CC(=O)O)NC(=O)[C@H](CC(=O)O)NC(=O)[C@H](C)NC(=O)[C@H](CC(=O)O)NC(=O)[C@H](CCCNC(=N)N)NC(=O)[C@H](CC(C)C)NC(=O)[C@H](CC(C)C)NC(=O)[C@H](CCCNC(=N)N)NC(=O)[C@H](CCCCN)NC(=O)[C@H](CCCNC(=N)N)NC(=O)[C@H](CC(C)C)NC(=O)[C@H](CCCCN)NC(=O)[C@H](CCCNC(=N)N)NC(=O)[C@H](CC(C)C)NC(=O)[C@H](Cc1c[nH]cn1)NC(=O)[C@H](CO)NC(=O)[C@H](C)NC(=O)[C@@H](N)CC(C)C)C(=O)N[C@@H](C)C(=O)N[C@H](C(=O)N[C@@H](Cc1ccc(O)cc1)C(=O)N[C@@H](CCC(N)=O)C(=O)N[C@@H](C)C(=O)NCC(=O)N[C@@H](C)C(=O)N[C@@H](CCCNC(=N)N)C(=O)N[C@@H](CCC(=O)O)C(=O)NCC(=O)N[C@@H](C)C(=O)N[C@@H](CCC(=O)O)C(=O)N[C@@H](CCCNC(=N)N)C(=O)O)C(C)C [T-046] | > 5.00
9 | CC(C)C[C@H](NC(=O)[C@H](CCCNC(=N)N)NC(=O)[C@H](CCCCN)NC(=O)[C@H](CCC(N)=O)NC(=O)[C@H](CC(C)C)NC(=O)[C@H](CCCCN)NC(=O)[C@H](CC(=O)O)NC(=O)CNC(=O)[C@H](CC(=O)O)NC(=O)[C@H](CCCNC(=N)N)NC(=O)[C@H](CC(C)C)NC(=O)[C@H](CC(C)C)NC(=O)[C@H](CCCNC(=N)N)NC(=O)[C@H](CCCCN)NC(=O)[C@H](CCCNC(=N)N)NC(=O)[C@H](CC(C)C)NC(=O)[C@H](CCCCN)NC(=O)[C@H](CCCNC(=N)N)NC(=O)[C@H](CC(C)C)NC(=O)[C@@H](N)Cc1c[nH]cn1)C(=O)N[C@@H](C)C(=O)N[C@@H](CCC(=O)O)C(=O)N[C@@H](Cc1ccc(O)cc1)C(=O)N[C@@H](CCC(N)=O)C(=O)N[C@@H](C)C(=O)N[C@@H](CCCNC(=N)N)C(=O)N[C@@H](C)C(=O)N[C@@H](CCCCN)C(=O)N[C@@H](CCC(=O)O)C(=O)N[C@@H](C)C(=O)N[C@@H](Cc1ccccc1)C(=O)N[C@@H](CC(=O)O)C(=O)N[C@@H](CCCNC(=N)N)C(=O)O [T-052] (H-HLRKLRKRLLRDGDKLQKRLAEYQARAKEAFDR-OH) | > 5.00
10 | CC(C)C[C@H](NC(=O)[C@H](CCCNC(=N)N)NC(=O)[C@H](CC(=O)O)NC(=O)[C@H](CCC(N)=O)NC(=O)[C@H](CC(C)C)NC(=O)[C@H](CCCCN)NC(=O)[C@H](CC(=O)O)NC(=O)CNC(=O)[C@H](CC(=O)O)NC(=O)[C@H](CCCNC(=N)N)NC(=O)[C@H](CC(C)C)NC(=O)[C@H](CC(C)C)NC(=O)[C@H](CCCNC(=N)N)NC(=O)[C@H](CCCCN)NC(=O)[C@H](CCCNC(=N)N)NC(=O)[C@H](CC(C)C)NC(=O)[C@H](CCCCN)NC(=O)[C@H](CCCNC(=N)N)NC(=O)[C@H](CC(C)C)NC(=O)[C@@H](N)Cc1c[nH]cn1)C(=O)N[C@@H](C)C(=O)N[C@@H](CCC(=O)O)C(=O)N[C@@H](Cc1ccc(O)cc1)C(=O)N[C@@H](CCC(N)=O)C(=O)N[C@@H](C)C(=O)N[C@@H](CCCNC(=N)N)C(=O)N[C@@H](C)C(=O)N[C@@H](CCCNC(=N)N)C(=O)N[C@@H](CCC(=O)O)C(=O)N[C@@H](C)C(=O)N[C@@H](Cc1ccccc1)C(=O)N[C@@H](CC(=O)O)C(=O)N[C@@H](CCCNC(=N)N)C(=O)O [T-055] (H-HLRKLRKRLLRDGDKLQDRLAEYQARAREAFDR-OH) | > 5.00
11 | CC(C)C[C@H](NC(=O)[C@H](CCCNC(=N)N)NC(=O)[C@H](CC(=O)O)NC(=O)[C@H](CCC(N)=O)NC(=O)[C@H](CC(C)C)NC(=O)[C@H](CCCCN)NC(=O)[C@H](CC(=O)O)NC(=O)CNC(=O)[C@H](CC(=O)O)NC(=O)[C@H](CCCNC(=N)N)NC(=O)[C@H](Cc1ccccc1)NC(=O)[C@H](CC(C)C)NC(=O)[C@H](CCCNC(=N)N)NC(=O)[C@H](CCCCN)NC(=O)[C@@H](NC(=O)[C@H](CC(C)C)NC(=O)[C@H](CCCCN)NC(=O)[C@H](CCCNC(=N)N)NC(=O)[C@H](CC(C)C)NC(=O)[C@@H](N)Cc1c[nH]cn1)C(C)C)C(=O)N[C@@H](C)C(=O)N[C@@H](CCC(=O)O)C(=O)N[C@@H](Cc1ccc(O)cc1)C(=O)N[C@@H](CCC(N)=O)C(=O)N[C@@H](C)C(=O)N[C@@H](CCCNC(=N)N)C(=O)N[C@@H](C)C(=O)N[C@@H](CCCCN)C(=O)N[C@@H](CCC(=O)O)C(=O)N[C@@H](C)C(=O)N[C@@H](Cc1ccccc1)C(=O)N[C@@H](CC(=O)O)C(=O)N[C@@H](CCCNC(=N)N)C(=O)O [T-059] (H-HLRKLVKRLFRDGDKLQDRLAEYQARAKEAFDR-OH) | > 5.00
12 | CC(C)C[C@H](NC(=O)[C@H](CCCNC(=N)N)NC(=O)[C@H](CCCCN)NC(=O)[C@H](CCC(N)=O)NC(=O)[C@H](CC(C)C)NC(=O)[C@H](CC(=O)O)NC(=O)[C@H](CC(=O)O)NC(=O)[C@H](C)NC(=O)[C@H](CC(=O)O)NC(=O)[C@H](CCCNC(=N)N)NC(=O)[C@H](CC(C)C)NC(=O)[C@H](CC(C)C)NC(=O)[C@H](CCCNC(=N)N)NC(=O)[C@H](CCCCN)NC(=O)[C@H](CCCNC(=N)N)NC(=O)[C@H](CC(C)C)NC(=O)[C@H](CCCCN)NC(=O)[C@H](CCCNC(=N)N)NC(=O)[C@H](CC(C)C)NC(=O)[C@@H](N)Cc1c[nH]cn1)C(=O)N[C@@H](C)C(=O)N[C@@H](CCC(=O)O)C(=O)N[C@@H](Cc1ccc(O)cc1)C(=O)N[C@@H](CCC(N)=O)C(=O)N[C@@H](C)C(=O)N[C@@H](CCCNC(=N)N)C(=O)N[C@@H](C)C(=O)N[C@@H](CCCCN)C(=O)N[C@@H](CCC(=O)O)C(=O)N[C@@H](C)C(=O)N[C@@H](Cc1ccccc1)C(=O)N[C@@H](CC(=O)O)C(=O)N[C@@H](CCCNC(=N)N)C(=O)O [T-064] (H-HLRKLRKRLLRDADDLQKRLAEYQARAKEAFDR-OH) | > 5.00
